# Tested on: human coronary artery endothelial cells (hCaEC)
# Experiment: 3H-thymidine uptake proliferation assay, hCaEC
# Format: cell-based
# Conditions: Homo sapiens, Endothelial cell; read-out: hCaEC IC50 Mean ± SEM
# Method: Experiments were performed to investigate interactions between zotarolimus (ABT-578) and paclitaxel when administered in combination. The effects of paclitaxel and zotarolimus on the anti-proliferative activity of human coronary artery smooth muscle ([…]) and endothelial […] determined using an in vitro proliferation assay. The proliferation and migration of vascular smooth muscle cells into the vascular neointima is a characteristic pathologic response seen in restenotic lesions (Lafont and Libby, 1998). As a result, in vitro assays which specifically measure the anti-proliferative activity of candidate anti-restenotic compounds on human coronary artery smooth muscle and endothelial cells predict potential anti-restenotic activity in vivo. To determine if paclitaxel attenuated or augmented the activity of zotarolimus the effect of paclitaxel and zotarolimus alone and in combination on growth-factor induced proliferation was determined. Data were analyzed for additivity using an isobologram approach and a combination index analysis. An isobologram is a Cartesian plot of pairs of doses that, in combination, yield a specified level of effect. It is a convenient way of graphically displaying results of drug-combination and similar studies, because paired values of experimental points that fall below or above the line connecting the axial points indicate synergistic and non-synergistic interactions, respectively. Cell proliferation was monitored by following incorporation of ^3H-thymidine into newly synthesized DNA of cells stimulated by serum and growth factors. Exponentially growing […] were seeded into 96-well flat bottom tissue culture plates at 5,000 cells/well (10,000 cells/well for […]). The cells were allowed to attach overnight. […] PerkinElmer; Wellesley; MA) was added to each filter well and the plates were counted using a TopCount microplate scintillation counter (PerkinElmer). […] The concentration eliciting a specific anti-proliferative effect was determined using a four-parameter equation (equation 1): […]
compound,measurement,value
CO[C@H]1C[C@@H]2CC[C@@H](C)[C@@](O)(O2)C(=O)C(=O)N2CCCC[C@H]2C(=O)O[C@H]([C@H](C)C[C@@H]2CC[C@H](n3cnnn3)[C@H](OC)C2)CC(=O)[C@H](C)/C=C(\C)[C@@H](O)[C@@H](OC)C(=O)[C@H](C)C[C@H](C)/C=C/C=C/C=C/1C [zotarolimus],IC50,3.6 ± 0.2 nM

# From patent US20090162413A1 (priority 1998, published 2009)
